The results in this text go back to patent publication US5700635A, “HIV-1 gag cytotoxic T-lymphocyte epitope and method of use” (United Biomedical, Inc., priority 1989, dated 1997).

Data set [1] concerns cytotoxic T lymphocytes specific for gag and HLA B8.
The test system of data set [2] is cytotoxic T lymphocytes.

Each structure is given as a SMILES string.

Regarding `CC[C@H](C)[C@H](NC(=O)[C@H](CCC(=O)O)NC(=O)CNC(=O)[C@@H](NC(=O)[C@@H]1CCCN1C(=O)[C@@H](NC(=O)[C@@H]1CCCN1C(=O)[C@@H]1CCCN1C(=O)[C@@H](N)CC(N)=O)[C@@H](C)CC)C(C)C)C(=O)N[C@@H](Cc1ccc(O)cc1)C(=O)N[C@@H](CCCCN)C(=O)N[C@@H](CCCNC(=N)N)C(=O)N[C@@H](Cc1c[nH]c2ccccc12)C(=O)N[C@H](C(=O)N[C@H](C(=O)N[C@@H](CS)C(=O)O)[C@@H](C)CC)[C@@H](C)CC` [p24-13, NH2 -asparagine-proline-proline-isoleucine-proline-valine-glycine-glutamate-isoleucine-tyrosine-lysine-arginine-tryptophan-isoleucine-iso leucine-cysteine-COOH], in data set [1], the “recognition of peptide by cytotoxic T lymphocytes (lysis of target cells)” value was “recognised by cytotoxic T lymphocytes specific for gag and HLA B8”; the “specific interaction with HLA class I molecule” value is recorded as “interacts specifically with HLA B8”. Also, in data set [2], the “stimulation of cytotoxic T lymphocytes to grow in vitro” value is “have been used to stimulate cytotoxic T lymphocytes to grow in vitro”.
